Laboratory results taken from patent US11014911B2, “CDK2 inhibitors” (Pfizer Inc., priority 2019, dated 2021).

Target: CDK2/Cyclin E1 full length (Homo sapiens (Human), UniProt P24941)
Assay: CDK2/Cyclin E1 full length mobility shift assay
Type: biochemical
Method: Cdk2/Cyclin E1 Full Length Mobility Shift Assay
Wild-type CDK2/wild-type full length Cyclin E1 enzyme complex was produced in-house (baculoviral expression, LJIC-2080/LJIC-2103) and phosphorylated by CDK7/Cyclin H1/Matl enzyme complex with CDK2:CDK7 ratio of 50:1 (concentration mg/mL) in the presence of 10 mM MgCl2 and 5 mM ATP at room temperature for one hour. […] The assay was initiated with the addition of ATP, following a fifteen minutes pre-incubation of enzyme and inhibitor at room temperature in the reaction mixture. The reaction was stopped after 45 minutes at room temperature by the addition of 50 μL of 80 mM EDTA.

Row | SMILES | Ki [nM]
1 | CC(C)(C)NC(=O)O[C@@H]1CC[C@H](c2cc(NC(=O)Cc3ccc(F)cn3)n[nH]2)C1 [Example 300, (1R,3S)-3-(3-{[(5-fluoropyridin-2-yl)acetyl]amino}-1H-pyrazol-5-yl)cyclopentyl tert-butylcarbamate] | 0.65
2 | COCc1cc(C(=O)Nc2cc([C@H]3CC[C@@H](OC(=O)N4CC[C@@H]4C)C3)[nH]n2)n(C)n1 [Example 595, (1R,3S)-3-[3-({[3-(methoxymethyl)-1-methyl-1H-pyrazol-5-yl]carbonyl}amino)-1H-pyrazol-5-yl]cyclopentyl (2S)-2-methylazetidine-1-carboxylate] | 1.52
3 | CC1(NC(=O)O[C@@H]2CC[C@H](c3cc(NC(=O)Cc4ccno4)n[nH]3)C2)CCOC1 (single isomer, unassigned) [Example 474] | 0.44
4 | CCCNC(=O)O[C@@H]1CC[C@H](c2cc(NC(=O)c3ccnn3CCN(C)C)n[nH]2)C1 [Example 195, (1R,3S)-3-{3-[({1-[2-(dimethylamino)ethyl]-1H-pyrazol-5-yl}carbonyl)amino]-1H-pyrazol-5-yl}cyclopentyl propylcarbamate] | 4.39
5 | CC1(NC(=O)O[C@@H]2CC[C@H](c3cc(NC(=O)Cc4ccc(C(F)(F)F)cn4)n[nH]3)C2)CC1 [Example 445, (1R,3S)-3-[3-({[5-(trifluoromethyl)pyridin-2-yl]acetyl}amino)-1H-pyrazol-5-yl]cyclopentyl (1-methylcyclopropyl)carbamate] | 0.6
6 | O=C(Cc1ccno1)Nc1cc([C@H]2CC[C@@H](OC(=O)NCC(F)F)C2)[nH]n1 [Example 246, (1R,3S)-3-{3-[(1,2-oxazol-5-ylacetyl)amino]-1H-pyrazol-5-yl}cyclopentyl (2,2-difluoroethyl)carbamate] | 3.29
7 | CC(C)NC(=O)O[C@@H]1CC[C@H](c2cc(NC(=O)Cc3cnc(C(F)(F)F)cn3)n[nH]2)C1 [Example 287, (1R,3S)-3-[3-({[5-(trifluoromethyl)pyrazin-2-yl]acetyl}amino)-1H-pyrazol-5-yl]cyclopentyl propan-2-ylcarbamate] | 2.26
8 | CC[C@H](C)NC(=O)O[C@@H]1CC[C@H](c2cc(NC(=O)Cc3c(C)noc3C)n[nH]2)C1 [Example 340, (1R,3S)-3-(3-{[(3,5-dimethyl-1,2-oxazol-4-yl)acetyl]amino}-1H-pyrazol-5-yl)cyclopentyl (2S)-butan-2-ylcarbamate] | 2.24
9 | CC(C)(C)NC(=O)O[C@@H]1CC[C@H](c2cc(NC(=O)Cc3ccc(Cl)cn3)n[nH]2)C1 [Example 310, (1R,3S)-3-(3-{[(5-chloropyridin-2-yl)acetyl]amino}-1H-pyrazol-5-yl)cyclopentyl tert-butylcarbamate] | 0.69
10 | COc1cnc(CC(=O)Nc2cc([C@H]3CC[C@@H](OC(=O)NC(C)(C)C)C3)[nH]n2)s1 [Example 311, (1R,3S)-3-(3-{[(5-methoxy-1,3-thiazol-2-yl)acetyl]amino}-1H-pyrazol-5-yl)cyclopentyl tert-butylcarbamate] | 0.36
11 | O=C(Cc1ccc(F)cc1)Nc1cc([C@H]2CC[C@@H](OC(=O)NCC(F)F)C2)[nH]n1 [Example 248, (1R,3S)-3-(3-{[(4-fluorophenyl)acetyl]amino}-1H-pyrazol-5-yl)cyclopentyl (2,2-difluoroethyl)carbamate] | 2.41
12 | Cc1cnc(CC(=O)Nc2cc([C@H]3CC[C@@H](OC(=O)NC4(CC(F)(F)F)CC4)C3)[nH]n2)o1 [Example 454, (1R,3S)-3-(3-{[(5-methyl-1,3-oxazol-2-yl)acetyl]amino}-1H-pyrazol-5-yl)cyclopentyl[1-(2,2,2-trifluoroethyl)cyclopropyl]carbamate] | 0.48
13 | CC(C)(C)CNC(=O)O[C@@H]1CC[C@H](c2cc(NC(=O)Cc3ccno3)n[nH]2)C1 [Example 418, (1R,3S)-3-{3-[(1,2-oxazol-5-ylacetyl)amino]-1H-pyrazol-5-yl}cyclopentyl (2,2-dimethylpropyl)carbamate] | 2.69
14 | C[C@@H](NC(=O)O[C@@H]1CC[C@H](c2cc(NC(=O)Cc3ccon3)n[nH]2)C1)C1CC1 [Example 467, (1R,3S)-3-{3-[(1,2-oxazol-3-ylacetyl)amino]-1H-pyrazol-5-yl}cyclopentyl [(1R)-1-cyclopropylethyl]carbamate] | 1.2
15 | COc1cc(C(=O)Nc2cc([C@H]3CC[C@@H](OC(=O)NC4(C)CCOC4)C3)[nH]n2)n(C)n1 (single isomer, unassigned) [Example 480] | 2.01
16 | Cc1cc(CC(=O)Nc2cc([C@H]3CC[C@@H](OC(=O)NC4(C)CC4)C3)[nH]n2)no1 [Example 7, (1R,3S)-3-(3-{[(5-methyl-1,2-oxazol-3-yl)acetyl]amino}-1H-pyrazol-5-yl)cyclopentyl (1-methylcyclopropyl)carbamate] | 0.61
17 | Cc1ccnc(CC(=O)Nc2cc([C@H]3CC[C@@H](OC(=O)NC(C)(C)C)C3)[nH]n2)c1Cl [Example 313, (1R,3S)-3-(3-{[(3-chloro-4-methylpyridin-2-yl)acetyl]amino}-1H-pyrazol-5-yl)cyclopentyl tert-butylcarbamate] | 0.63
18 | CC[C@H](C)NC(=O)O[C@@H]1CC[C@H](c2cc(NC(=O)Cc3ccccc3S(N)(=O)=O)n[nH]2)C1 [Example 49] | 0.19
19 | CCC1(NC(=O)O[C@@H]2CC[C@H](c3cc(NC(=O)Cc4ncc(C)o4)n[nH]3)C2)CC1 [Example 448, (1R,3S)-3-(3-{[(5-methyl-1,3-oxazol-2-yl)acetyl]amino}-1H-pyrazol-5-yl)cyclopentyl (1-ethylcyclopropyl)carbamate] | 0.29

Row | SMILES | Ki [nM]
20 | COC[C@H](C)NC(=O)O[C@@H]1CC[C@H](c2cc(NC(=O)Cc3ncc(OC)s3)n[nH]2)C1 [Example 522, (1R,3S)-3-(3-{[(5-methoxy-1,3-thiazol-2-yl)acetyl]amino}-1H-pyrazol-5-yl)cyclopentyl [(2S)-1-methoxypropan-2-yl]carbamate] | 3.05
21 | CCCNC(=O)O[C@H]1CC[C@@H](c2cc(NC(=O)Cc3c[nH]cn3)n[nH]2)C1 [Example 165, (1S,3R)-3-{3-[(1H-imidazol-4-ylacetyl)amino]-1H-pyrazol-5-yl}cyclopentyl propylcarbamate] | 2.28
22 | Cc1ncc(CC(=O)Nc2cc([C@H]3CC[C@@H](OC(=O)NC(C)C(C)(F)F)C3)[nH]n2)s1 (single isomer, unassigned) [Example 390] | 3.74
23 | CC[C@H](C)CNC(=O)O[C@@H]1CC[C@H](c2cc(NC(=O)Cc3cnc(C)o3)n[nH]2)C1 [Example 416, (1R,3S)-3-(3-{[(2-methyl-1,3-oxazol-5-yl)acetyl]amino}-1H-pyrazol-5-yl)cyclopentyl [(2S)-2-methylbutyl]carbamate] | 2.27
24 | CCN(C)C(=O)O[C@@H]1CC[C@H](c2cc(NC(=O)Cc3ccno3)n[nH]2)C1 [Example 236, (1R,3S)-3-{3-[(1,2-oxazol-5-ylacetyl)amino]-1H-pyrazol-5-yl}cyclopentyl ethyl(methyl)carbamate] | 3.16
25 | CC[C@H](C)NC(=O)O[C@@H]1CC[C@H](c2cc(NC(=O)Cc3cn(CC(F)(F)F)nn3)n[nH]2)C1 [Example 366, (1R,3S)-3-[3-({[1-(2,2,2-trifluoroethyl)-1H-1,2,3-triazol-4-yl]acetyl}amino)-1H-pyrazol-5-yl]cyclopentyl (2S)-butan-2-ylcarbamate] | 1.79
26 | CCCNC(=O)O[C@@H]1CC[C@H](c2cc(NC(=O)Cc3ccccc3S(N)(=O)=O)n[nH]2)C1 [Example 204, (1R,3S)-3-(3-{[(2-sulfamoylphenyl)acetyl]-amino}-1H-pyrazol-5-yl)cyclopentyl propylcarbamate] | 1.13
27 | Cn1ncc(CC(=O)Nc2cc([C@H]3CC[C@@H](OC(=O)NC4(C)CCOC4)C3)[nH]n2)c1C(F)(F)F (single isomer, unassigned) [Example 495] | 1.79
28 | Cc1cc(Cl)cnc1CC(=O)Nc1cc([C@H]2CC[C@@H](OC(=O)NC3(C)CC3)C2)[nH]n1 [Example 439, (1R,3S)-3-(3-{[(5-chloro-3-methylpyridin-2-yl)acetyl]amino}-1H-pyrazol-5-yl)cyclopentyl (1-methylcyclopropyl)carbamate] | 2.37
29 | Cc1cc(CC(=O)Nc2cc([C@H]3CC[C@@H](OC(=O)NC4(CC(F)(F)F)CC4)C3)[nH]n2)on1 [Example 453, (1R,3S)-3-(3-{[(3-methyl-1,2-oxazol-5-yl)acetyl]amino}-1H-pyrazol-5-yl)cyclopentyl [1-(2,2,2-trifluoroethyl)cyclopropyl]carbamate] | 0.29
30 | CC[C@H](C)NC(=O)O[C@@H]1CC[C@H](c2cc(NC(=O)Cc3ccc(C(F)(F)F)cn3)n[nH]2)C1 [Example 360, (1R,3S)-3-[3-({[5-(trifluoromethyl)pyridin-2-yl]acetyl}amino)-1H-pyrazol-5-yl]cyclopentyl (2S)-butan-2-ylcarbamate] | 1.46
31 | COc1cc(CC(=O)Nc2cc([C@@H]3CC[C@H](OC(=O)NC4CCOCC4)C3)[nH]n2)ccn1 [Example 503, (1S,3R)-3-(3-{[(2-methoxypyridin-4-yl)acetyl]amino}-1H-pyrazol-5-yl)cyclopentyl tetrahydro-2H-pyran-4-ylcarbamate] | 2.13
32 | COc1cc(CC(=O)Nc2cc([C@H]3CC[C@@H](OC(=O)NC(C)C(C)(F)F)C3)[nH]n2)ccn1 (single isomer, unassigned) [Example 392] | 3.14
33 | Cc1c(CC(=O)Nc2cc([C@H]3CC[C@@H](OC(=O)NC(C)CC(F)(F)F)C3)[nH]n2)cnn1C (single isomer, unassigned) [Example 400] | 1.29
34 | CC1(NC(=O)O[C@@H]2CC[C@H](c3cc(NC(=O)CC4COc5ccccc54)n[nH]3)C2)CCOC1 (single isomer, unassigned) [Example 492] | 2.39
35 | CCCNC(=O)O[C@H]1CC[C@@H](c2cc(NC(=O)Cc3cc(OC)ncc3O)n[nH]2)C1 [Example 193, (1S,3R)-3-(3-{[(5-hydroxy-2-methoxypyridin-4-yl)acetyl]amino}-1H-pyrazol-5-yl)cyclopentyl propylcarbamate] | 0.41
36 | CC(C)NC(=O)O[C@@H]1CC[C@H](c2cc(NC(=O)Cc3cccc4scnc34)n[nH]2)C1 [Example 283, (1R,3S)-3-{3-[(1,3-benzothiazol-4-ylacetyl)amino]-1H-pyrazol-5-yl}cyclopentyl propan-2-ylcarbamate] | 4.6
37 | Cc1ncc(CC(=O)Nc2cc([C@@H]3CC[C@H](OC(=O)NC(C)C)C3)[nH]n2)s1 [Example 26] | 0.21
